Measurements as given in ChEMBL document CHEMBL1136778, “Mitomycin antitumor compounds. 2. Interaction of transition metal ions with mitomycin C. Solution structure and biological activity of a Pd(2+)-MMC complex” (J Med Chem, 2003).

What was measured:
K562 [1] = test: In vitro inhibitory activity against K562 leukemia cells in the presence of pd2; type: functional, cell-based; details: Homo sapiens
K562 [2] = test: In vitro inhibitory activity against K562 leukemia cells; type: functional, cell-based; details: Homo sapiens

Row | SMILES | IC50 (K562 [1]) [nM] | IC50 (K562 [2]) [nM]
1 | CO[C@@]12[C@H](COC(N)=O)C3=C(C(=O)C(C)=C(N)C3=O)N1C[C@@H]1N[C@@H]12 [MITOMYCIN] | 15.8 | 1
2 | CC1=C(N)C(=O)c2c(COC(N)=O)c3n(c2C1=O)C[C@H](N)[C@@H]3O | – | 33
